The numbers were not newly measured in patent US11850218B2, “Nutraceutical compositions and methods for dietary alleviation of Polycystic Ovary Syndrome” (Provation Life LLC, priority 2022, dated 2023), which cites them from elsewhere.

The subject of data set [1] is cellular sensitivity to insulin.

In the case of `[Zn]` [Zinc], in the data set on hyperandrogenism, the anti-androgenic effect result is given as “show anti-androgenic effects”. Further, the production of progesterone result in the data set with hyperandrogenism (supplementation) is recorded as “increase production”.
For `CC[C@H](C)C(=O)O[C@H]1C[C@@H](C)C=C2C=C[C@H](C)[C@H](CC[C@@H]3C[C@@H](O)CC(=O)O3)[C@H]21` [Monacolin K], the anti-androgenic effect result with hyperandrogenism is “provides an anti-androgenic effect”.
On to `COc1ccc2cc3[n+](cc2c1OC)CCc1cc2c(cc1-3)OCO2` [Berberine], for which, in data set [1], the “cellular sensitivity to insulin / insulin resistance” value is reported as “decrease insulin resistance”.
With chromium (III) picolinate, in data set [1], the “cellular sensitivity to insulin / insulin resistance” value is listed as “positive effect upon cellular sensitivity to insulin”. Further, the anti-androgenic effect entry with hyperandrogenism is listed as “produces an anti-androgenic effect”. Further, the free testosterone levels entry in the data set on hyperandrogenism (PCOS cases) is recorded as “lowering free testosterone levels”.
Consider `O[C@H]1[C@H](O)[C@@H](O)[C@H](O)[C@@H](O)[C@H]1O` [myo-inositol], for which the “cellular sensitivity to insulin / insulin resistance” value in data set [1] is on record as “increase cellular sensitivity to insulin”. Further, the anti-androgenic effect result with hyperandrogenism is “significant anti-androgenic effect”. For the same compound, the “menstruation / menstrual cyclicity” value with PCOS cases is listed as “restoration of normal menstruation”.
Take `COc1cc(/C=C/C(=O)CC(=O)/C=C/c2ccc(O)c(OC)c2)ccc1O` [Curcumin]: the “cellular sensitivity to insulin / insulin resistance” value in data set [1] is recorded as “increases cellular sensitivity to insulin”.
For the compound `[Mg+2]` [Magnesium], the anti-androgenic effect result with hyperandrogenism is “show anti-androgenic effects”. Also, in the data set with hyperandrogenism (supplementation), the “production of lutenizing hormone” value is “seems to have a positive effect”.
